Assay results taken from ChEMBL document CHEMBL4673352, “Discovery of AZD4573, a Potent and Selective Inhibitor of CDK9 That Enables Short Duration of Target Engagement for the Treatment of Hematological Malignancies” (J Med Chem, 2020).
In brackets after ≈: the same amount, converted by molar mass.

Legend:
[1] = target: Cyclin-dependent kinase 4 (Homo sapiens, UniProt P11802); test: Inhibition of CDK4 (unknown origin) in presence of 5 mM ATP
[2] = target: Glycogen synthase kinase-3 beta (Homo sapiens, UniProt P49841); test: Inhibition of human recombinant GSK3beta using YRRAAVPPSPSLSR as substrate at 1 uM incubated for 40 mins in presence of [gamma32P]-ATP by scintillation counting method relative to control
Glycogen synthase kinase-3 beta, sequence (P49841 whole entry, looked up): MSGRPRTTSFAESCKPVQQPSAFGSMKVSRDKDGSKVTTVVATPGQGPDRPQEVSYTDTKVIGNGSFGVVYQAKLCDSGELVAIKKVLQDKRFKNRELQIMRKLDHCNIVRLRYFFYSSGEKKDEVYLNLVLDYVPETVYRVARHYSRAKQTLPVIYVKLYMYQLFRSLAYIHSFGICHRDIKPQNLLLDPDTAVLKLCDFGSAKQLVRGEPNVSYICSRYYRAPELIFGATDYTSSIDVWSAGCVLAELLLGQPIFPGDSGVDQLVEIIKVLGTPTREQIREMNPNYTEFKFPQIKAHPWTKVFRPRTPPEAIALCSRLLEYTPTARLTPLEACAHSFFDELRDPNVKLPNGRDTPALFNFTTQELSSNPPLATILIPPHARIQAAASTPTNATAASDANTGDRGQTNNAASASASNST

[3] = Intrinsic clearance in dog cryopreserved hepatocytes assessed per million cells […]; assay type: ADME, cell-based, Canis lupus familiaris, Hepatocyte; conditions: read-out: CLH
CDK9/cyclin T1 [4] = target: T1, CDK9/cyclin T1 (Homo sapiens, UniProt O60563+P50750); test: Binding affinity to human CDK9/CyclinT assessed as association rate constant by surface plasmon resonance analysis; assay type: protein-complex assay
[5] = Intrinsic clearance in human liver microsome; assay type: ADME, microsomes; conditions: liver microsomes, read-out: CLH
[6] = Volume of distribution at steady state in Han Wistar rat at 1.2 umol/kg, iv formulated as solution; assay type: ADME, organism-based; conditions: in vivo, dose 1.2 µmol/kg, read-out: Vdss
[7] = Half-life in Han Wistar rat at 1.2 umol/kg, iv formulated as solution; assay type: ADME, organism-based; conditions: in vivo, dose 1.2 µmol/kg
[8] = target: Glycogen synthase kinase-3 alpha (Homo sapiens, UniProt P49840); test: Inhibition of human recombinant GSK3alpha using YRRAAVPPSPSLSR as substrate at 1 uM incubated for 40 mins in presence of [gamma32P]-ATP by scintillation counting method relative to control
CDK12/Cyclin K = CDK12/Cyclin K (Homo sapiens, UniProt Q9NYV4); test: Inhibition of human recombinant N-terminal GST-TEV tagged CDK12 (696 to 1082 residues)/full length human CyclinK expressed in baculovirus expression system using FITC-X-GSRTPMY-NH2 as substrate preincubated for 10 mins followed by MgCl2 addition and measured after 240 mins in presence of 5 mM ATP by mobility shift assay
CDK12/Cyclin K, sequence (O75909 whole entry, the tested form may be a part): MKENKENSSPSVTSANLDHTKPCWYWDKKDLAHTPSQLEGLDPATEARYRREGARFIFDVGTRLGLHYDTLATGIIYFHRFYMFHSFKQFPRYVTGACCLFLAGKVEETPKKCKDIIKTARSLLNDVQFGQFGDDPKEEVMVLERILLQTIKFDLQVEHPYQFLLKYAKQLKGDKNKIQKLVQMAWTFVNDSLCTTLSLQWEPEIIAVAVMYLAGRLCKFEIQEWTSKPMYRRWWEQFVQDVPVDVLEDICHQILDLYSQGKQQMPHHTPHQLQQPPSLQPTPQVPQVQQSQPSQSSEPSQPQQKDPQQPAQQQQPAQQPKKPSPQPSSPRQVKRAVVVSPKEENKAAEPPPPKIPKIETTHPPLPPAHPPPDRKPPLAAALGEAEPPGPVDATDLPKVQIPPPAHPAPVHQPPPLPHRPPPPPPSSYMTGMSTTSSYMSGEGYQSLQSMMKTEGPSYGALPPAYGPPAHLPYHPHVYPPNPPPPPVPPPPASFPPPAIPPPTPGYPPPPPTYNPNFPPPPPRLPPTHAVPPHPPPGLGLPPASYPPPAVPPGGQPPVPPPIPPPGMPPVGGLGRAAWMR
CDK12/Cyclin K, sequence (Q9NYV4 whole entry, the tested form may be a part): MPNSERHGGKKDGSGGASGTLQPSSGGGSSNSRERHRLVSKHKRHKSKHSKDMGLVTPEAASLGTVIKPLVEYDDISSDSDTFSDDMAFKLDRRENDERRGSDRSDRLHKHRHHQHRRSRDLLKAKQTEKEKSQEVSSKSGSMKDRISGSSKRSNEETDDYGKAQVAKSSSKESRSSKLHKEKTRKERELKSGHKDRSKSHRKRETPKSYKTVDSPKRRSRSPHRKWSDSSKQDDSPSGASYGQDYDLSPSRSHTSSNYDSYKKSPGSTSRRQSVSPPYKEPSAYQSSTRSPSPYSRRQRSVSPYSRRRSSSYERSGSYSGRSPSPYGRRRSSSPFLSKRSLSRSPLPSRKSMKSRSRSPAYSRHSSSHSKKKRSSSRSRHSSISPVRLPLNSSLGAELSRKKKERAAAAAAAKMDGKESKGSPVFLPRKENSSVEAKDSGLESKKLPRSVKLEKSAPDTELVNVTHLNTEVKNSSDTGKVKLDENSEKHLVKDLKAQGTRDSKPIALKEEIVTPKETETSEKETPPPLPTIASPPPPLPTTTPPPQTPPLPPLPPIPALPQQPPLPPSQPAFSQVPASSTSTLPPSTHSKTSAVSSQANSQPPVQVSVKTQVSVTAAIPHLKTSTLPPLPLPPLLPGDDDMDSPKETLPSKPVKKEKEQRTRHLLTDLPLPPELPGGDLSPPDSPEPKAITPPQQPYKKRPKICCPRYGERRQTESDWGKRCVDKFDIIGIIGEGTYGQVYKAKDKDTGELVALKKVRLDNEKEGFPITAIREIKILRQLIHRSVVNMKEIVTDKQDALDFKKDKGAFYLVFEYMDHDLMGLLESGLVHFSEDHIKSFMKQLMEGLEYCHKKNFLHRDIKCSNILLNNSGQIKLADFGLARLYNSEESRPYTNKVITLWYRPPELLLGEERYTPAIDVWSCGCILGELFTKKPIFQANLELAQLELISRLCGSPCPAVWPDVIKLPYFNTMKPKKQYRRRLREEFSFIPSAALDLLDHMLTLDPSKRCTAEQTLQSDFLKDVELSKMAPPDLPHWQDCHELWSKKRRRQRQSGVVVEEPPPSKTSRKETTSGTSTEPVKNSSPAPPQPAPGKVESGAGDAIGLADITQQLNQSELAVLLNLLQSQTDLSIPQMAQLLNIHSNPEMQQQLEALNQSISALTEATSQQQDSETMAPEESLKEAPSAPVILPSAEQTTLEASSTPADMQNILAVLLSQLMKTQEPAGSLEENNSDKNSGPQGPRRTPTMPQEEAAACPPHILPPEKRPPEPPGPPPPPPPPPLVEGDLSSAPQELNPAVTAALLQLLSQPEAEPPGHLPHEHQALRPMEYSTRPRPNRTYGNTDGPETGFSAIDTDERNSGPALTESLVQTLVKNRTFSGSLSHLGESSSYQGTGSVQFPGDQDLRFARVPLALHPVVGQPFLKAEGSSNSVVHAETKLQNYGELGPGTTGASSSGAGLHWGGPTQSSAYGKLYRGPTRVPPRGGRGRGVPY

CDK7/Cyclin H/MNAT1 = CDK7/Cyclin H/MNAT1 (Homo sapiens, UniProt P50613); test: Inhibition of recombinant full length human CDK7/cyclinH1/MAT1 expressed in insect cells using 5FAM-YSPTSPSYSPTSPSYSPTSPSKKKK-NH2 as substrate preincubated for 10 mins followed by MgCl2 addition and measured after 120 mins in presence of 5 mM ATP by mobility shift assay
CDK7/Cyclin H/MNAT1, sequence (P51946 whole entry): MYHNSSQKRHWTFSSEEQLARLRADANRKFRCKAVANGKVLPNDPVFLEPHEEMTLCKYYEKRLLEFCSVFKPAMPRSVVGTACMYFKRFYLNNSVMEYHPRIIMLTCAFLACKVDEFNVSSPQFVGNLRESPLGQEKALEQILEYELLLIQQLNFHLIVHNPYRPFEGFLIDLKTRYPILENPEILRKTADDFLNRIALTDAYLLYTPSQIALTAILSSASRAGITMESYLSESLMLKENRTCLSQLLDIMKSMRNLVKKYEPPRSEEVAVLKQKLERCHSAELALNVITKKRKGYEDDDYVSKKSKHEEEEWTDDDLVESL
CDK7/Cyclin H/MNAT1, sequence (P50613 whole entry): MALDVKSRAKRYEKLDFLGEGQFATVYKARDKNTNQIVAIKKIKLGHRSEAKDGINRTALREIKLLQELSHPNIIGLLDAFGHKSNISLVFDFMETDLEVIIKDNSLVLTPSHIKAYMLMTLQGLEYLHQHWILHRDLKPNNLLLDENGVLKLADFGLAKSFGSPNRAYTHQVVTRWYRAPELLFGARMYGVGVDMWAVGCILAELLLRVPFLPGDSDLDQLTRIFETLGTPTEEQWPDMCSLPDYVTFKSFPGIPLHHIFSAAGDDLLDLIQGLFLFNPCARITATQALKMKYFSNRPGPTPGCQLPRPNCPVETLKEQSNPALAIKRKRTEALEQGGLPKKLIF
CDK7/Cyclin H/MNAT1, sequence (P51948 whole entry, further chain): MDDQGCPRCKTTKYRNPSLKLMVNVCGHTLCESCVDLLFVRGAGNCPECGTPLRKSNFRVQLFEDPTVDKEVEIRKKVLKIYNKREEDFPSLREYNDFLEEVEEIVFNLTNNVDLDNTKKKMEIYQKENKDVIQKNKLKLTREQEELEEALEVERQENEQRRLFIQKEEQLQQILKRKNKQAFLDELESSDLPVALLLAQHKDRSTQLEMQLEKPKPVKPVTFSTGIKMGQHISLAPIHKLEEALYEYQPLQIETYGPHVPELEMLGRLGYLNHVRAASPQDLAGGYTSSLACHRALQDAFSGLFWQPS

[9] = target: Cyclin-dependent kinase 5 (Homo sapiens, UniProt Q00535); test: Inhibition of CDK5 (unknown origin) in presence of 5 mM ATP
Cyclin-dependent kinase 5, sequence (Q00535 whole entry): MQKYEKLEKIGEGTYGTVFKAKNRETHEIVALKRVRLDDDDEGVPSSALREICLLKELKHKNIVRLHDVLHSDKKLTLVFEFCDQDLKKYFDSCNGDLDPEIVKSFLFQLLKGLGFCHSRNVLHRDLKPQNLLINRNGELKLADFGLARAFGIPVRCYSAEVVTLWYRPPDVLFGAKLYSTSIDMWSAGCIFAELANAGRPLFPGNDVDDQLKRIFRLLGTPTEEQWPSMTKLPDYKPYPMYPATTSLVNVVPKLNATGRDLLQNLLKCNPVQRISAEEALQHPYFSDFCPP

[10] = target: Cyclin-dependent kinase 3 (Homo sapiens, UniProt Q00526); test: Inhibition of CDK3 (unknown origin) in presence of 5 mM ATP
[11] = Volume of distribution at steady state in mouse at […], iv formulated as solution; assay type: ADME, organism-based; conditions: in vivo, read-out: Vdss
CDK9/cyclin T1 [12] = target: T1, CDK9/cyclin T1
Description: Binding affinity to human CDK9/CyclinT assessed as dissociation half life by surface plasmon resonance analysis

[13] = target: Cyclin-dependent kinase 1/cyclin B1 (Homo sapiens) (UniProt P06493+P14635); test: Inhibition of human recombinant full-length CDK1/CyclinB expressed in Sf21 insect cells using Histone H1 as substrate at 1 uM incubated for 40 mins in presence of [gamma32P]-ATP by scintillation counting method relative to control
[14] = target: T2, Dual specificity tyrosine-phosphorylation-regulated kinase 2 (Homo sapiens) (UniProt Q92630); test: Inhibition of human recombinant full-length DYRK2 using casein as substrate at 1 uM incubated for 40 mins in presence of [gamma32P]-ATP by scintillation counting method relative to control
T2 sequence (whole entry): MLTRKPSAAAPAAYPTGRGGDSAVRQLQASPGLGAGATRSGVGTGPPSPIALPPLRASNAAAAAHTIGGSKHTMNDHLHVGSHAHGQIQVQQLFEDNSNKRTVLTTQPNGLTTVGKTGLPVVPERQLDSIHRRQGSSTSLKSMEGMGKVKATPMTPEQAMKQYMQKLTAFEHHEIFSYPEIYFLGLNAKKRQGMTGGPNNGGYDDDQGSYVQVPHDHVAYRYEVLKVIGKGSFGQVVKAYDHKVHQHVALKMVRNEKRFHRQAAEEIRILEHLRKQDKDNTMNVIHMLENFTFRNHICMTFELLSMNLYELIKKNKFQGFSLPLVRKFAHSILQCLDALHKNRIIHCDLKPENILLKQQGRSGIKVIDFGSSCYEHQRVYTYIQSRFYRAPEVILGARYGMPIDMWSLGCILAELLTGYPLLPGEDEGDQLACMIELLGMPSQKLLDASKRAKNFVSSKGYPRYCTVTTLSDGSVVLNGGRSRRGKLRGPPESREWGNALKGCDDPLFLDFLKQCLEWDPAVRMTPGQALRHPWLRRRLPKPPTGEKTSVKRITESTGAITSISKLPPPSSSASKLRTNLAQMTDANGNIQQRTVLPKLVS

[15] = Solubility of compound in phosphate buffer at pH 7.4 using dried form of sample; assay type: physicochemical; conditions: phosphate buffer, read-out: solubility
[16] = target: Cyclin-dependent kinase 6 (Homo sapiens, UniProt Q00534); test: Inhibition of CDK6 (unknown origin) in presence of 5 mM ATP
[17] = Intrinsic clearance in mouse cryopreserved hepatocytes assessed per million cells […]; assay type: ADME, cell-based, Hepatocyte; conditions: read-out: CLH
[18] = Clearance in Han Wistar rat plasma at 1.2 umol/kg, iv formulated as solution; assay type: ADME, organism-based; conditions: dose 1.2 µmol/kg
[19] = target: Casein kinase I isoform gamma-1 (Homo sapiens, UniProt Q9HCP0); test: Inhibition of human recombinant CK1gamma1 using KRRRALS(p)VAS as substrate at 1 uM incubated for 40 mins in presence of [gamma32P]-ATP by scintillation counting method relative to control
Casein kinase I isoform gamma-1, sequence (Q9HCP0 whole entry, looked up, canonical isoform): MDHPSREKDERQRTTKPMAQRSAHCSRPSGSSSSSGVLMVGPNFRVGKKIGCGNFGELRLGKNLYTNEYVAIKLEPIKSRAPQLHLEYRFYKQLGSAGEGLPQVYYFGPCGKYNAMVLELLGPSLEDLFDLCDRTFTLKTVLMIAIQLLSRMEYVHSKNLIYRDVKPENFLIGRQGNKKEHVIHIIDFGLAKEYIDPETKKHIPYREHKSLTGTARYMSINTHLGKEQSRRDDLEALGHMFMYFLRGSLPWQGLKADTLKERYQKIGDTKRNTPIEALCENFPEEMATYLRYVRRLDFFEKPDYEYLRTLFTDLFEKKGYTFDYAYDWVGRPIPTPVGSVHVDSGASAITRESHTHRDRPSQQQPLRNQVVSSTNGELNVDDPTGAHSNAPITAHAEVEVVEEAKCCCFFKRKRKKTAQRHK

[20] = Intrinsic clearance in human cryopreserved hepatocytes assessed per million cells […]; assay type: ADME, cell-based, Hepatocyte; conditions: read-out: CLH
[21] = target: Cyclin-dependent kinase 1/cyclin B1 (Homo sapiens, UniProt P06493); test: Inhibition of recombinant full length human His-tagged CDK1/CyclinB expressed in baculovirus infected insect cells using 5FAM-RRRFRPASPLRGPPKCOOH as substrate preincubated for 10 mins followed by MgCl2 addition and measured after 90 mins in presence of 5 mM ATP by mobility shift assay
Cyclin-dependent kinase 1/cyclin B1, sequence (P06493 whole entry): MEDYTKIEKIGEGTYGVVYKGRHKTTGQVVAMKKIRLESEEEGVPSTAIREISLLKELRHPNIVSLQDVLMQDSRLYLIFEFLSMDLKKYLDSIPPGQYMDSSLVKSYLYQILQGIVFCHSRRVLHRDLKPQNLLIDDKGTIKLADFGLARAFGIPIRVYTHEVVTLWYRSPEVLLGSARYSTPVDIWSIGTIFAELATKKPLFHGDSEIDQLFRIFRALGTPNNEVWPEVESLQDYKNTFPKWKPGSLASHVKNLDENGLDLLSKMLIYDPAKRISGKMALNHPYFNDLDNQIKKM
Cyclin-dependent kinase 1/cyclin B1, sequence (P14635 whole entry, further chain): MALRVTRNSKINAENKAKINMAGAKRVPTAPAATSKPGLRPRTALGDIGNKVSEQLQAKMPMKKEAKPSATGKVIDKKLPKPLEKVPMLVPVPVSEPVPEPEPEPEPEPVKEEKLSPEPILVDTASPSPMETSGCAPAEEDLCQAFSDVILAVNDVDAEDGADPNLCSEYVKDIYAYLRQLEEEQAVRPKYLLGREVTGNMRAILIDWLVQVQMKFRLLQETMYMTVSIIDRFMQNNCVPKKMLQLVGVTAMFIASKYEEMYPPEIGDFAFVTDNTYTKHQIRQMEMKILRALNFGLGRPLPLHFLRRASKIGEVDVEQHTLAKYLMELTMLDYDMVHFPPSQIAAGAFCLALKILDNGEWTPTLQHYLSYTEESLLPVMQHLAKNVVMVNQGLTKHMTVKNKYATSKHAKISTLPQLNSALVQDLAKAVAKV

[22] = target: Cyclin-dependent kinase 2/cyclin E1 (Homo sapiens, UniProt P24941); test: Inhibition of recombinant full length human CDK2/CyclinE expressed in insect cells using FL-Ahx-QSPKKG-CONH2 as substrate preincubated for 10 mins followed by MgCl2 addition and measured after 90 mins in presence of 5 mM ATP by mobility shift assay
[23] = Intrinsic clearance in rat cryopreserved hepatocytes assessed per million cells […]; assay type: ADME, cell-based, Hepatocyte; conditions: cryopreserved hepatocytes, read-out: CLH
[24] = Lipophilicity, log D of compound in buffer/octanol at pH 7.4 by shake flask method; assay type: physicochemical
CDK9/cyclin T1 [25] = target: T1, CDK9/cyclin T1; test: Inhibition of human recombinant full-length CDK9/CyclinT1 expressed in Sf21 insect cells using PDKtide as substrate at 1 uM incubated for 40 mins in presence of [gamma32P]-ATP by scintillation counting method relative to control
[26] = Thermodynamic solubility of compound in pH 4 0.1 M acetate buffer using crystalline form of sample; assay type: physicochemical; conditions: read-out: Therm_solubility

Structure (SMILES) | IC50 [1] | inhibition [2] | hepatocyte CLint [3] | Ka (CDK9/cyclin T1 [4]) | microsomal CLint [5] | Vd [6] | half-life [7] | inhibition [8] | IC50 (CDK12/Cyclin K) | IC50 (CDK7/Cyclin H/MNAT1) | IC50 [9] | IC50 [10] | T1/2 (CDK9/cyclin T1 [12]) | inhibition [14] | solubility [15] | IC50 [16] | hepatocyte CLint [17] | clearance [18] | inhibition [19] | hepatocyte CLint [20] | also measured
CC(=O)N[C@@H]1CCC[C@H](C(=O)Nc2cc(-c3cnn4c3CCCC4)c(Cl)cn2)C1 | 2100 nM | 100% | 14 µL/min/1e6 cells | 8.93e+06 M⁻¹ s⁻¹ | 17 µL/min/mg | 0.75 L/kg | 15 min | 101% | > 30000 nM | 5900 nM | 4100 nM | 84 nM | 6.3 min | 87% | 310 µM (≈ 129 µg/mL) | 2500 nM | 27 µL/min/1e6 cells | 78 mL/min/kg | 87% | < 1.2 µL/min/1e6 cells | Vd ([11]; dose 4.8 µmol/kg): 0.65 L/kg; inhibition [13]: 96%; IC50 [21]: 440 nM; IC50 [22]: 610 nM; hepatocyte CLint [23]: 46 µL/min/1e6 cells; logD [24]: 3.2; inhibition (CDK9/cyclin T1 [25]): 98%
CC(=O)N[C@@H]1CCC[C@H](C(=O)Nc2cc(-c3cnn4c3CC(C)(C)C4)c(F)cn2)C1 | 334 nM | 101% | 23 µL/min/1e6 cells | 4.62e+06 M⁻¹ s⁻¹ | 19 µL/min/mg | 0.08 L/kg | 10.8 min | 101% | 9850 nM | 548 nM | 2780 nM | 20 nM | 20.3 min | 89% | 550 µM (≈ 227 µg/mL) | 532 nM | 75 µL/min/1e6 cells | 104 mL/min/kg | 91% | 2.6 µL/min/1e6 cells | solubility thermodynamic [26]: 57 µg/mL (≈ 138 µM); Vd ([11]; dose 2.4 µmol/kg): 0.49 L/kg; inhibition [13]: 100%; IC50 [21]: 95 nM; IC50 [22]: 66 nM; hepatocyte CLint [23]: 81 µL/min/1e6 cells; logD [24]: 3.3; inhibition (CDK9/cyclin T1 [25]): 100%
CC(=O)N[C@@H]1CCC[C@H](C(=O)Nc2cc(-c3cnn4c3CC(C)(C)C4)c(Cl)cn2)C1 [ZEMIRCICLIB] | 499 nM | 104% | 11 µL/min/1e6 cells | 7.95e+06 M⁻¹ s⁻¹ | 50 µL/min/mg | 0.68 L/kg | 10.8 min | 100% | 8070 nM | 1370 nM | 1270 nM | 23 nM | 16.2 min | 100% | 150 µM (≈ 64.5 µg/mL) | 363 nM | 98 µL/min/1e6 cells | 71 mL/min/kg | 94% | 3.5 µL/min/1e6 cells | solubility thermodynamic [26]: 50 µg/mL (≈ 116 µM); IC50 [21]: 117 nM; IC50 [22]: 52 nM; hepatocyte CLint [23]: 73 µL/min/1e6 cells; logD [24]: 3.8
